One test deals with T1, Caspase-1 (Homo sapiens, UniProt P29466).
T1 sequence (P29466 whole entry): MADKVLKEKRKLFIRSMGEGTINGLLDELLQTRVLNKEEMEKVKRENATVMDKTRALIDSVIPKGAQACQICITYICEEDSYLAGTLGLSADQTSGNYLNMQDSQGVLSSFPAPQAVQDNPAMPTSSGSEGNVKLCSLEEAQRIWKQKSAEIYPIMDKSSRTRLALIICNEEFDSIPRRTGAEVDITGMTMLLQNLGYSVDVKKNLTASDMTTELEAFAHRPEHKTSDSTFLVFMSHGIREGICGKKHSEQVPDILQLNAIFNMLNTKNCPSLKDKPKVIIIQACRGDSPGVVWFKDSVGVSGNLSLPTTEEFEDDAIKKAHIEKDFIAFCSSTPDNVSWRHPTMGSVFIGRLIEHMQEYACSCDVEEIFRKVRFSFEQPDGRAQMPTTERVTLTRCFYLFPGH
Description: Inhibition of human recombinant caspase 1.

Test [1] addresses T2, Caspase-3 (Homo sapiens, UniProt P42574).
T2 sequence (P42574 whole entry): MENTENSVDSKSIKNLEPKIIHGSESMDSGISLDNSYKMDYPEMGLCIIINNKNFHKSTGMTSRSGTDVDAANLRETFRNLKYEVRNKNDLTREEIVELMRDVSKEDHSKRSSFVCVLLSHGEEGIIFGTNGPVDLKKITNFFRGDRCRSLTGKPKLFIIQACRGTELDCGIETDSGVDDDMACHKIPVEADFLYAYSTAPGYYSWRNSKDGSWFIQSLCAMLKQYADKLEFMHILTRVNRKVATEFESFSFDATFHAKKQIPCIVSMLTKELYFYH
Briefly: Inhibition of human recombinant caspase 3.

Another test has as its target T3, Caspase-7 (Homo sapiens, UniProt P55210).
T3 sequence (P55210 whole entry): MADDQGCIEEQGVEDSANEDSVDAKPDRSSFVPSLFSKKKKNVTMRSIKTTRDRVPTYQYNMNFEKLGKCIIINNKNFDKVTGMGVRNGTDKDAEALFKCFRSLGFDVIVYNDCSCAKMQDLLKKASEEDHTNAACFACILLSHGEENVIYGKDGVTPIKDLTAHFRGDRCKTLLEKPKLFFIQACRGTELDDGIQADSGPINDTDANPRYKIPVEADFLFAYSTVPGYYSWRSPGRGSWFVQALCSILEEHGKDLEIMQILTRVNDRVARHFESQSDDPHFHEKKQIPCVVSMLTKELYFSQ
Briefly: Inhibition of human recombinant caspase 7.

For another test, the target named is Caspase-8 (Homo sapiens, UniProt Q14790). Briefly: Inhibition of human recombinant caspase 8.
Test [2] has as its target T2, Caspase-3. Briefly: Inhibition of human recombinant caspase 3 in NT2 by whole cell assay.

Broadly, the IC50 is the concentration at which inhibition is half-maximal.

Sequence of Caspase-8 (Q14790 217-374 limits assumed): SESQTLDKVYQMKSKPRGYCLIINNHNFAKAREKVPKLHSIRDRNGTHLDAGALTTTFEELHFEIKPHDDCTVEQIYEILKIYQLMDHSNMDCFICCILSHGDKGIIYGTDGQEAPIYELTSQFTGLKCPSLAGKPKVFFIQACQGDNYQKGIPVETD
Sequence of Caspase-8 (Q14790 385-479 limits assumed): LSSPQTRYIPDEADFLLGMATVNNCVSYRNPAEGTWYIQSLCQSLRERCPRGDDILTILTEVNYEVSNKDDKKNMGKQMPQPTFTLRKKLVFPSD

As for `CCC(C(=O)N[C@@H](CC(=O)O)C(=O)CCCc1ccccc1)n1cc(C(C)(C)C)nc(Nc2nnn[nH]2)c1=O` (stereo partly specified), the IC50 came out at 0.009 µM on Caspase-1; 0.005 µM on Caspase-3 [1]; 0.008 µM on Caspase-7; 0.014 µM on Caspase-8; 19.4 µM at Caspase-3 [2].
Turning to `CCC(C(=O)N[C@@H](CC(=O)O)C(=O)CCCc1ccccc1)n1cc(C(C)(C)C)nc(NCc2cc(OC)cc(OC)c2)c1=O` (stereo partly specified), the IC50 was determined as 0.32 µM on Caspase-1, 0.16 µM on Caspase-3 [1], 0.8 µM on Caspase-7 and 3.05 µM at Caspase-8.
In the same order, the values of `CCC(C(=O)N[C@@H](CC(=O)O)C(=O)CCCc1ccccc1)n1cc(C(C)(C)C)nc(Nc2ccc3c(c2)OCCO3)c1=O` (stereo partly specified) are 0.33 µM, 0.028 µM, 0.28 µM and 1 µM.
As to `CCCCCCN(C)CC(=O)[C@H](CC(=O)O)NC(=O)C(CC)n1cc(C(C)(C)C)nc(Nc2nnn[nH]2)c1=O` (stereo partly specified), the IC50 at Caspase-1 is 0.0034 µM; on Caspase-3 [1], 0.0066 µM; at Caspase-7, 0.0647 µM; on Caspase-8, 0.163 µM; on Caspase-3 [2], 6.07 µM.
As to `CCC(C(=O)N[C@@H](CC(=O)O)C(=O)CCCc1ccccc1)n1cc(C(C)(C)C)nc(NCCc2cccs2)c1=O` (stereo partly specified), the IC50 came to 2.31 µM on Caspase-1, 0.05 µM on Caspase-3 [1], 0.92 µM on Caspase-7 and 0.3 µM on Caspase-8.
In the same order, the values of `CCC(C(=O)N[C@@H](CC(=O)O)C(=O)CCCc1ccccc1)n1cc(C(C)(C)C)nc(NC(CC(C)C)C(=O)O)c1=O` (stereo partly specified) are 5.49 µM, 0.1 µM, 3.49 µM and over 10 µM.

The record behind these values is ChEMBL document CHEMBL1139112, “Solid-phase analogue synthesis of caspase-3 inhibitors via palladium-catalyzed amination of 3-bromopyrazinones” (Bioorg Med Chem Lett, 2007).
